Results: patent publication US12129257B1, “Imidazo[1,2-a]pyrazine compounds as CK2 inhibitors” (KING FAISAL UNIVERSITY, priority 2023, dated 2024)

Columns and labels:
PC3 (prostate) = assay: In vitro cytotoxic activity (MTT) assay, PC3; assay type: cell-based; conditions: Homo sapiens, Prostate cell; PC3 (prostate) cells, exposed for 96 hours; read-out: IC50, 50% inhibition of cell proliferation
Protocol: (§1) Compounds 1a-12a and 1b-12b were screened for their in vitro cytotoxic activity utilizing a 3-(4,5-dimethyl-thiazol-2-yl)-2,5-diphenyltetrazolium bromide (MTT) assay against selected cancer human cell lines consisting of PC3 (prostate), HCT116 (colon), A375 (melanoma), H1299 (lung), MIAPaCa-2 (pancreas), HL60 (leukemia), MCF7 (breast), MDA-MB-231 (breast) (T. Mosmann, J. Immunol. Meth., 1983, 65, 55-63). The cells were cultured at 37° C. in RMPI1640 medium supplemented with 10% fetal bovine serum, 50 IU/mL penicillin, and 50 μg/mL streptomycin in a 5% CO2 incubator. All cells were sub-cultured 3 times/week by trypsinisation. Viable cells were seeded and allowed to adhere for 12 h before a test drug was added in 96-well plates at an initial density of 1.0×10^5 cells/mL. Tumor cell lines were separately exposed to various concentrations of the tested compounds followed by incubation at a temperature of 37° C. during 96 hours inside a medium of fresh RMPI1640. Cells were subsequently incubated at 37° C. using MTT at 0.5 mg/mL during 4 hours. After removal of supernatant, formazan crystals were dissolved in isopropanol and the optical density was measured at 570 nm. CX-4945 was used as a positive control.

HCT116 (colon) = assay: In vitro cytotoxic activity (MTT) assay, HCT116; assay type: cell-based; conditions: Homo sapiens, HCT-116; HCT116 (colon) cells, exposed for 96 hours; read-out: IC50, 50% inhibition of cell proliferation
Protocol: as §1

A375 (melanoma) = assay: In vitro cytotoxic activity (MTT) assay, A375; assay type: cell-based; conditions: Homo sapiens, A-375; A375 (melanoma) cells, exposed for 96 hours; read-out: IC50, 50% inhibition of cell proliferation
Protocol: as §1

H1299 (lung) = assay: In vitro cytotoxic activity (MTT) assay, H1299; assay type: cell-based; conditions: Homo sapiens, NCI-H1299; H1299 (lung) cells, exposed for 96 hours; read-out: IC50, 50% inhibition of cell proliferation
Protocol: as §1

MIAPaCa-2 (pancreas) = assay: In vitro cytotoxic activity (MTT) assay, MIAPaCa-2; assay type: cell-based; conditions: Homo sapiens, MIA PaCa-2; MIAPaCa-2 (pancreas) cells, exposed for 96 hours; read-out: IC50, 50% inhibition of cell proliferation
Protocol: as §1

HL60 (leukemia) = assay: In vitro cytotoxic activity (MTT) assay, HL60; assay type: cell-based; conditions: Homo sapiens, HL-60; HL60 (leukemia) cells, exposed for 96 hours; read-out: IC50, 50% inhibition of cell proliferation
Protocol: as §1

MCF7 (breast) = assay: In vitro cytotoxic activity (MTT) assay, MCF7; assay type: cell-based; conditions: Homo sapiens; MCF7 (breast) cells, exposed for 96 hours; read-out: IC50, 50% inhibition of cell proliferation
Protocol: as §1

MDA-MB-231 (breast) = assay: In vitro cytotoxic activity (MTT) assay, MDA-MB-231; assay type: cell-based; conditions: Homo sapiens; MDA-MB-231 (breast) cells, exposed for 96 hours; read-out: IC50, 50% inhibition of cell proliferation
Protocol: as §1

[1] = target: T1, recombinant human CK2 (RRBB-holoenzyme) (Homo sapiens, UniProt P68400); assay: CK2 Kinase Assay (33P-ATP, filter plate); assay type: biochemical; conditions: recombinant human CK2, final ATP concentration 15 μM, 10 min at 30° C.; read-out: protein kinase CK2 activity IC50
T1 construct: purchased Millipore
Protocol: CK2 Kinase Assay was conducted using the protocol as described in Pierre F. et al; J. Med. Chem. 2011, 54, 635-654. The tested compounds in aqueous solution were added at a volume of 10 μL to a reaction mixture comprising 10 μL of assay dilution buffer (ADB; 20 mM MOPS, pH 7.2, 25 mM β-glycerol phosphate, 5 mM EGTA, 1 mM sodium orthovanadate, and 1 mM dithiothreitol), 10 μL of substrate peptide (RRRDDDSDDD, dissolved in ADB at a concentration of 1 mM), 10 μL of recombinant human CK2 (RRBB-holoenzyme, 25 ng dissolved in ADB; Millipore). Reactions were initiated by the addition of 10 μL of ATP solution (90%75 mMMgCl2, 75 μM ATP (final ATP concentration: 15 μM) dissolved in ADB; 10% [γ-33P] ATP (stock 1mCi/100 μL; 3000 Ci/mmol (Perkin-Elmer) and maintained for 10 min at 30° C. The reactions were quenched with 100 μL of 0.75% phosphoric acid and then transferred to and filtered through a phosphor cellulose filter plate (Millipore). After washing each well five times with 0.75% phosphoric acid, the plate was dried under vacuum for 5 min and, following the addition of 15 μL of scintillation fluid to each well, the residual radioactivity was measured using a Wallac luminescence counter. The IC50 values were derived from eight concentrations of test inhibitors.

T1 sequence (P68400 whole entry): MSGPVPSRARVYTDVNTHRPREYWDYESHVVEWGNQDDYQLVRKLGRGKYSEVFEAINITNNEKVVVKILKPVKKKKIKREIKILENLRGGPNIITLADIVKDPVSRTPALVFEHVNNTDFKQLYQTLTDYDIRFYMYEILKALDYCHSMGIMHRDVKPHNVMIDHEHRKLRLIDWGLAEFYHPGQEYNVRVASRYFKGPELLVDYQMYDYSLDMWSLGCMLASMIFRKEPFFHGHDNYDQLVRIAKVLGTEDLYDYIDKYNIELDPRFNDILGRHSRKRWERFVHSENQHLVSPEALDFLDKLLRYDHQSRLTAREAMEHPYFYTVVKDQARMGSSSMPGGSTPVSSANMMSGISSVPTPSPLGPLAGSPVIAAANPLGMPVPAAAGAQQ
T1 sequence (P67870 whole entry partner): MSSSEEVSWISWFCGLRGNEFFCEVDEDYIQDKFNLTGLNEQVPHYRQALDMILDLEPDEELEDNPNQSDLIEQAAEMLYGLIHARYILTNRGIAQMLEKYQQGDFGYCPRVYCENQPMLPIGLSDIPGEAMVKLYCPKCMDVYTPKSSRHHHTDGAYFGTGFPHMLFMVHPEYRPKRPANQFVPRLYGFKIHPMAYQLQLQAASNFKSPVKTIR

Row | SMILES | IC50 (PC3 (prostate)) [nM] | IC50 (HCT116 (colon)) [nM] | IC50 (A375 (melanoma)) [nM] | IC50 (H1299 (lung)) [nM] | IC50 (MIAPaCa-2 (pancreas)) [nM] | IC50 (HL60 (leukemia)) [nM] | IC50 (MCF7 (breast)) [nM] | IC50 (MDA-MB-231 (breast)) [nM] | IC50 [1] [nM]
1 | O=C(O)c1ccc2c(c1)nc(Nc1cccc(Cl)c1)c1ccncc12 [CX-4945, Silmitasertib, reference compound] | 2000 | 2300 | 4100 | 2300 | 1000 | 3700 | 9100 | 6200 | 
2 | FC(F)(F)c1cccc(Nc2c(-c3ccncc3)nc3cnccn23)c1 [Compound 3a, 2-(pyridin-4-yl)-N-(3-(trifluoromethyl)phenyl)imidazo[1,2-a]pyrazin-3-amine] | 1200 | 1700 | 3400 | 1500 | 1300 | 4400 | 5100 | 4600 | 115
3 | FC(F)(F)c1cccc(Nc2c(-c3ccncn3)nc3cnccn23)c1 [Compound 2b, 2-(pyrimidin-4-yl)-N-(3-(trifluoromethyl)phenyl)imidazo[1,2-a]pyrazin-3-amine] | 1400 | 1500 | 3500 | 1200 | 1600 | 4500 | 5000 | 4200 | 98
